In this test the test system is bacterial strain LF82 binding to the glycoprotein BSA-(Mannose)3. The test can be described thus: Bacterial Binding Assay (BBA). Format: cell-based, Escherichia coli. The settings on record: read-out: Bacterial Binding Assay IC50. An excerpt: The purpose of the Bacterial Binding Assay (BBA) is to determine the inhibition activity of selective FimH antagonists on the bacterial strain LF82 binding to the glycoprotein BSA-(Mannose)3.
Below is a list of the Materials used to run the BBA are described below. • 1. LB broth: Supplier: Gibco, #10855 • 2. D-PBS: Supplier: Wisent, #311-425-CL • 3. LB agar plates • 4. 96-well black plate (high binding): Supplier: Costar, #3925 • 5. TopSeal™-A adhesive sealing films; Supplier PerkinElmer, #6005185 • 6. Carbonate-bicarbonate buffer pH 9.6 tablets, Supplier: Medicago, #09-8922-24 • 7. Water, Supplier: Gibco, #15230-162 • 8. Bovine serum albumin (BSA): Supplier: Sigma, #A-7888 • 9. (Man)-3-BSA (α1-3, α1-6 Mannotriose-BSA, 1 mg), V-Labs, #NGP1336, lot#HGDX37-169-1 • 10. Tween 20: Supplier: Sigma, #P9416 • 11. Bright-Glo Luciferase Assay System: Supplier: Promega, #E2610 • 12. LF82/Luciferase strain: Invasive ability of an Escherichia coli strain isolated from the ileal mucosa of a patient with Crohn's disease. Boudeau J, Glasser A L, Masseret E, Joly B, Darfeuille-Michaud A, Infect Immun. 1999, 67(9), 4499-509
Solutions and buffers used to run the BBA are described below. • 1. 0.04M carbonate-bicarbonate buffer (coating buffer) • 2. […] 1 mg of (Man)-3-BSA in 25 mL of water. • 3. 4000 ng/mL BSA • 4. 40 ng/mL BSA • 5. 1 μg/mL BSA-(Man)3: 150 μL of 40 ng/mL BSA-(Man)3+5.85 mL of 40 ng/mL BSA • 6. 0.5 μg/mL BSA-(Man)3 in 0.02M carbonate-bicarbonate buffer. • 7. 20 ng/mL BSA in 0.02M carbonate-bicarbonate buffer • 8. Blocking buffer (2% BSA/DPBS): 1 g of BSA in 50 mL D-PBS • 9. 2× binding buffer (0.2% BSA/D-PBS): 5 mL of blocking buffer+45 mL D-PBS. • 10. Washing buffer (D-PBS/0.01% Tween 20): 10 μL of Tween 20 in 100 mL D-PBS. • 11. 1× Bright-Glo Luciferase substrate:Dilute 1:1 the Bright-Glo Luciferase Assay System with D-PBS The experimental protocol to run the BBA is described below.
Overnight culture of LF82/Luciferase strain: Into two Falcon 50 mL tubes, add 20 mL of LB+20 μL of 50 mg/mL Kanamycin and inoculate with a loop from glycerol stock of the LF82/Luciferase strain. Incubate overnight at 37° C. with no shaking.
Glycoprotein coating of 96-well plates: Add 100 μL/well of 0.5-2 μg/mL BSA-(Man)3. 20 μg/mL BSA is used as the control background. Seal plate using an adhesive sealing film and incubate overnight at room temperature. Wash the 96-well plate three times with 150 μL/well of D-PBS, add 170 μL/well of blocking solution and incubate 45 min (minimum) at room temperature.
Preparation of bacterial suspension: Mix the two cultures tubes (40 mL) and perform a 1:10 dilution in LB (900 μl LB+100 μl culture. Measure optical density (OD) of the bacterial cultures. OD1 ˜5×10^8 cells/mL. Centrifuge LF82 culture for 20 min at 3500 rpm at room temperature. Re-suspend bacterial pellet in D-PBS and centrifuge again for 20 min at 3500 rpm. Re-suspend bacterial pellet in D-PBS to obtain a bacterial concentration of 2×10^9 bacteria/mL. Dilute 1/10 in D-PBS to obtain a final bacterial concentration of 2×10^8 bacteria/mL (=107 bacteria/50 μL). Perform 1/10 serial dilutions in LB of each bacterial suspension, plate 10 μL of dilutions on LB agar plates (final dilutions of 10^−7) and incubate overnight at 37° C. and count CFUs to determine the actual bacteria density in the assay.
Bacterial binding assay: Add 147 μL 2× binding buffer to compound plate (containing 3 μL of compound). After blocking step is performed (at least 45 min), wash plates three times with 200 μL/well of D-PBS. With a 100 μL multichannel manual pipettor, add 50 μL/well of compound diluted in 2× binding buffer. With a 100 μL multichannel manual pipettor, add 50 μL/well of bacterial suspension. Agitate at slow speed for 1 min and incubate 40-75 min at room temperature. Wash 5 times with 150 μL/well of washing buffer and then once with D-PBS. Add 100 μL/well of 1× Bright-Glo Luciferase substrate. […]

Molecules are shown by their SMILES.

This note sets out measurements from patent US9890176B2, “Mannose derivatives for treating bacterial infections” (Vertex Pharmaceuticals Incorporated, priority 2013, dated 2018).

As usually defined, the IC50 is the concentration that inhibits the measured activity by half. On to `Cc1cc(-c2cccc(Cl)c2F)ccc1O[C@H]1O[C@H](CO)[C@@H](O)[C@H](O)[C@]1(C)O` [Compound 93], for which the IC50 was found to be 215 ± 5 nM.
The figure for `COc1cc(OC)cc(-c2ccc(O[C@H]3O[C@H](CO)[C@@H](O)[C@H](O)[C@]3(C)O)c(C)c2)c1` [Compound 94] is 16 ± 6 nM; for `COc1ccc(OC)c(-c2ccc(O[C@H]3O[C@H](CO)[C@@H](O)[C@H](O)[C@]3(C)O)c(C)c2)c1` [Compound 95] it is 24 ± 12 nM.
Take `COc1ccc(-c2ccc(O[C@H]3O[C@H](CO)[C@@H](O)[C@H](O)[C@]3(C)O)c(C)c2)cc1Cl` [Compound 96]: the IC50 turned out to be 20 ± 9 nM.
The figure for `COc1ccc(Cl)cc1-c1ccc(O[C@H]2O[C@H](CO)[C@@H](O)[C@H](O)[C@]2(C)O)c(C)c1` [Compound 97] is 110 ± 20 nM; for `COc1c(F)cc(-c2ccc(O[C@H]3O[C@H](CO)[C@@H](O)[C@H](O)[C@]3(C)O)c(C)c2)cc1F` [Compound 98] it is 16 ± 7 nM; for `COc1c(F)cc(F)cc1-c1ccc(O[C@H]2O[C@H](CO)[C@@H](O)[C@H](O)[C@]2(C)O)c(C)c1` [Compound 99] it is 38 ± 8 nM.
Take `COc1cc(Cl)c(Cl)cc1-c1ccc(O[C@H]2O[C@H](CO)[C@@H](O)[C@H](O)[C@]2(C)O)c(C)c1` [Compound 100]: the IC50 was 155 ± 25 nM.
For `Cc1cc(-c2cc(C#N)ccc2C)ccc1O[C@H]1O[C@H](CO)[C@@H](O)[C@H](O)[C@]1(C)O` [Compound 101], the IC50 was determined as 1180 ± 215 nM.
For `Cc1cc(-c2ccc(F)c(C(=O)N3CCOCC3)c2)ccc1O[C@H]1O[C@H](CO)[C@@H](O)[C@H](O)[C@]1(C)O` [Compound 102], the IC50 amounted to 24 ± 5 nM.
Consider `Cc1cc(-c2cc(F)cc(C(=O)N3CCOCC3)c2)ccc1O[C@H]1O[C@H](CO)[C@@H](O)[C@H](O)[C@]1(C)O` [Compound 103], for which the IC50 is 18 ± 8 nM.
The figure for `Cc1cc(-c2ccc(O[C@H]3O[C@H](CO)[C@@H](O)[C@H](O)[C@]3(C)O)c(C)c2)ccc1O` [Compound 104] is 69 ± 23 nM; for `Cc1cc(-c2ccc(O[C@H]3O[C@H](CO)[C@@H](O)[C@H](O)[C@]3(C)O)c(C)c2)ccc1O[C@H]1O[C@H](CO)[C@@H](O)[C@H](O)[C@]1(C)O` [Compound 105, (2R,3S,4S,5S,6R)-6-(hydroxymethyl)-3-methyl-2-[2-methyl-4-[3-methyl-4-[(2R,3S,4S,5S,6R)-3,4,5-trihydroxy-6-(hydroxymethyl)-3-methyl-tetrahydropyran-2-yl]oxy-phenyl]phenoxy]tetrahydropyran-3,4,5-triol] it is 6 ± 2 nM.
The figure for `CNC(=O)c1cccc(-c2ccc(O[C@H]3O[C@H](CO)[C@@H](O)[C@H](O)[C@]3(C)O)cc2)c1` [Example 14, N-methyl-3-[4-[(2R,3S,4S,5S,6R)-3,4,5-trihydroxy-6-(hydroxymethyl)-3-methyl-tetrahydropyran-2-yl]oxyphenyl]benzamide] is 132 ± 44 nM; for `CNC(=O)c1cccc(-c2ccc(O[C@H]3O[C@H](CO)[C@@H](O)[C@H](O)[C@]3(C)O)c(Cl)c2)c1` [Example 15, 3-[3-chloro-4-[(2R,3S,4S,5S,6R)-3,4,5-trihydroxy-6-(hydroxymethyl)-3-methyl-tetrahydropyran-2-yl]oxy-phenyl]-N-methyl-benzamide] it is 13 ± 2 nM; for `CNC(=O)c1cccc(-c2ccc(O[C@H]3O[C@H](CO)[C@@H](O)[C@H](O)[C@]3(C)O)c(F)c2)c1` [Example 16, 3-[3-fluoro-4-[(2R,3S,4S,5S,6R)-3,4,5-trihydroxy-6-(hydroxymethyl)-3-methyl-tetrahydropyran-2-yl]oxy-phenyl]-N-methyl-benzamide] it is 67 ± 18 nM.
On to `CNC(=O)c1cccc(-c2ccc(O[C@H]3O[C@H](CO)[C@@H](O)[C@H](O)[C@]3(C)O)c(OC)c2)c1` [Example 17, 3-[3-methoxy-4-[(2R,3S,4S,5S,6R)-3,4,5-trihydroxy-6-(hydroxymethyl)-3-methyl-tetrahydropyran-2-yl]oxy-phenyl]-N-methyl-benzamide], for which the IC50 stood at 27 ± 8 nM.
The result for `Cc1cc(-c2cccc([N+](=O)[O-])c2)ccc1O[C@H]1O[C@H](CO)[C@@H](O)[C@H](O)[C@]1(C)O` [Example 18, (2R,3S,4S,5S,6R)-6-(hydroxymethyl)-3-methyl-2-[2-methyl-4-(3-nitrophenyl)phenoxy]tetrahydropyran-3,4,5-triol] reads 13 ± 3 nM; that for `C[C@@]1(O)[C@@H](Oc2ccc(N3CCc4cc([N+](=O)[O-])ccc43)cc2Cl)O[C@H](CO)[C@@H](O)[C@@H]1O` [Example 19, (2R,3S,4S,5S,6R)-2-(2-chloro-4-(5-nitroindolin-1-yl)phenoxy)-6-(hydroxymethyl)-3-methyltetrahydro-2H-pyran-3,4,5-triol], 13 ± 6 nM; that for `C[C@@]1(O)[C@@H](Oc2ccc(-c3ccc(O[C@H]4O[C@H](CO)[C@@H](O)[C@H](O)[C@]4(C)O)cc3)cc2)O[C@H](CO)[C@@H](O)[C@@H]1O` [Example 106, (2R,3S,4S,5S,6R)-6-(hydroxymethyl)-3-methyl-2-[4-[4-[(2R,3S,4S,5S,6R)-3,4,5-trihydroxy-6-(hydroxymethyl)-3-methyl-tetrahydropyran-2-yl]oxyphenyl]phenoxy]tetrahydropyran-3,4,5-triol], 435 ± 115 nM.
For the molecule `C[C@@]1(O)[C@@H](Oc2ccc(-c3ccc(O[C@H]4O[C@H](CO)[C@@H](O)[C@H](O)[C@]4(C)O)c(Cl)c3)cc2Cl)O[C@H](CO)[C@@H](O)[C@@H]1O` [Example 107, (2R,3S,4S,5S,6R)-2-[2-chloro-4-[3-chloro-4-[(2R,3S,4S,5S,6R)-3,4,5-trihydroxy-6-(hydroxymethyl)-3-methyl-tetrahydropyran-2-yl]oxy-phenyl]phenoxy]-6-(hydroxymethyl)-3-methyl-tetrahydropyran-3,4,5-triol], the IC50 turned out to be 5 ± 1 nM.
For `C[C@@]1(O)[C@@H](Oc2ccc3ccc(O[C@H]4O[C@H](CO)[C@@H](O)[C@H](O)[C@]4(C)O)cc3c2)O[C@H](CO)[C@@H](O)[C@@H]1O` [Example 108, (2R,3S,4S,5S,6R)-6-(hydroxymethyl)-3-methyl-2-[[7-[(2R,3S,4S,5S,6R)-3,4,5-trihydroxy-6-(hydroxymethyl)-3-methyl-tetrahydropyran-2-yl]oxy-2-naphthyl]oxy]tetrahydropyran-3,4,5-triol], the IC50 amounted to 158 ± 61 nM.
For `COc1cc(-c2ccc(O[C@H]3O[C@H](CO)[C@@H](O)[C@H](O)[C@]3(C)O)c(OC)c2)ccc1O[C@H]1O[C@H](CO)[C@@H](O)[C@H](O)[C@]1(C)O` [Example 109, (2R,3S,4S,5S,6R)-6-(hydroxymethyl)-2-[2-methoxy-4-[3-methoxy-4-[(2R,3S,4S,5S,6R)-3,4,5-trihydroxy-6-(hydroxymethyl)-3-methyl-tetrahydropyran-2-yl]oxy-phenyl]phenoxy]-3-methyl-tetrahydropyran-3,4,5-triol], the IC50 turned out to be 8 ± 4 nM.
